According to ChEMBL document CHEMBL5346969 (J Med Chem, 2023):
Activity calls are given as the source filed them. The calls are words filed in the database; no cut-off is given here.

Tests used:
[1] = Metabolic stability in human liver microsomes assessed as intrinsic clearance at 1 uM incubated upto 60 mins in presence of NADPH by LC-MS/MS analysis; assay type: ADME, Microsome; conditions: read-out: CLH
MDA-MB-231 [2] = experiment: Antitumor activity against human MDA-MB-231 cells xenografted in immunodeficient BALB/c mouse assessed as tumor growth inhibition at 10 mg/kg,ip for 21 days consecutively every day; assay type: functional; conditions: MDA-MB-231, 504 h, time 21 day, read-out: TGI
MDA-MB-231 [3] = experiment: Induction of ferroptosis in human MDA-MB-231 cells assessed as cell viability at 1 uM incubated for 72 hrs in presence of N-acetyl-L-cysteine by MTT assay; assay type: functional, cell-based
[4] = Toxicity in immunodeficient BALB/c mouse assessed as change in AST level at 20 mg/kg, ip for 14 days by biochemical analysis; assay type: organism-based; conditions: in vivo, 336 h, time 14 day
MDA-MB-231 [5] = experiment: Antiproliferative activity against human MDA-MB-231 cells assessed as inhibition of cell viability incubated for 72 hrs by MTT assay; assay type: functional, cell-based; conditions: MDA-MB-231, 72 h
BT-549 = experiment: Antiproliferative activity against human BT-549 cells assessed as inhibition of cell viability at 1 uM incubated for 72 hrs by MTT assay; assay type: functional, cell-based
[6] = Toxicity in immunodeficient BALB/c mouse xenografted with human MDA-MB-231 cells assessed as morphological changes in heart at 20 mg/kg, ip for 21 days by H and E staining based microscopy; assay type: organism-based; conditions: in vivo, 504 h, time 21 day
[7] = Toxicity in immunodeficient BALB/c mouse assessed as change in ALT level at 20 mg/kg, ip for 14 days by biochemical analysis; assay type: organism-based; conditions: in vivo, 336 h, time 14 day
MDA-MB-231 [8] = experiment: Induction of ferroptosis in human MDA-MB-231 cells with assessed as increase in ACSL4 protein expression level at 5 to 20 nM incubated for 8 hrs by Western blot analysis; assay type: functional, cell-based; conditions: dose 5-20 nM
MDA-MB-231 [9] = experiment: Antitumor activity against human MDA-MB-231 cells xenografted in immunodeficient BALB/c mouse assessed as tumor growth inhibition at 5 mg/kg,ip for 21 days consecutively every day; assay type: functional; conditions: MDA-MB-231, 504 h, time 21 day, read-out: TGI
MDA-MB-231 [10] = experiment: Antitumor activity against human MDA-MB-231 cells xenografted in immunodeficient BALB/c mouse assessed as tumor growth inhibition at 20 mg/kg,ip for 21 days consecutively every day; assay type: functional; conditions: MDA-MB-231, 504 h, time 21 day, read-out: TGI
MDA-MB-231 [11] = experiment: Induction of ferroptosis in human MDA-MB-231 cells assessed as cell viability at 1 uM incubated for 72 hrs in presence of apoptosis inhibitor, Z-VAD-FMK by MTT assay; assay type: functional, cell-based
MDA-MB-231 [12] = experiment: Inhibition of colony formation in human MDA-MB-231 cells at 5 to 20 nM incubated for 14 days by crystal violet staining based assay; assay type: functional, cell-based; conditions: dose 5-20 nM, time 14.0 day
L02 = experiment: Cytotoxicity against human L02 cells assessed as inhibition of cell viability at 1 uM incubated for 72 hrs by MTT assay; assay type: toxicity, cell-based; conditions: l02, 72 h
[13] = Toxicity in immunodeficient BALB/c mouse assessed as change in BUN level at 20 mg/kg, ip for 14 days by biochemical analysis; assay type: organism-based; conditions: in vivo, 336 h, time 14 day
MDA-MB-231 [14] = experiment: Induction of ferroptosis in human MDA-MB-231 cells with assessed as change in ACSL4 protein expression level at 5 to 20 nM incubated for 8 hrs in presence of ferroptosis inhibitor, ferrostatin-1 by Western blot analysis; assay type: functional, cell-based; conditions: dose 5-20 nM
HT-29 = experiment: Antiproliferative activity against human HT-29 cells assessed as inhibition of cell viability at 1 uM incubated for 72 hrs by MTT assay; assay type: functional, cell-based
MDA-MB-231 [15] = experiment: Induction of ferroptosis in human MDA-MB-231 cells assessed as increase in intracellular lipid peroxidase by measuring increase in green fluorescence intensity at 5 to 20 nM incubated for 8 hrs by C11-BODIPY-581/591 staining based confocal laser microscopy; assay type: functional, cell-based; conditions: dose 5-20 nM
4T1 = experiment: Antiproliferative activity against mouse 4T1 cells assessed as inhibition of cell viability at 1 uM incubated for 72 hrs by MTT assay; assay type: functional, cell-based
[16] = Toxicity in immunodeficient BALB/c mouse assessed as change in LDH level at 20 mg/kg, ip for 14 days by biochemical analysis; assay type: organism-based; conditions: in vivo, 336 h, time 14 day
HeLa = experiment: Antiproliferative activity against human HeLa cells assessed as inhibition of cell viability at 1 uM incubated for 72 hrs by MTT assay; assay type: functional, cell-based
MDA-MB-231 [17] = experiment: Induction of ferroptosis in human MDA-MB-231 cells assessed as increase in intracellular Fe2+ level at 5 to 20 nM incubated for 8 hrs by FerroOrange staining based confocal laser microscopy; assay type: functional, cell-based; conditions: dose 5-20 nM
MDA-MB-231 [18] = experiment: Induction of ferroptosis in human MDA-MB-231 cells with assessed as decrease in GPX4 protein expression level at 5 to 20 nM incubated for 8 hrs by Western blot analysis; assay type: functional, cell-based; conditions: dose 5-20 nM
MDA-MB-231 [19] = experiment: Antitumor activity against human MDA-MB-231 cells xenografted in immunodeficient BALB/c mouse assessed as inhibition of tumor cell proliferation at 20 mg/kg,ip for 21 days consecutively every day by Ki67 staining based immunohistochemical analysis; assay type: functional, organism-based; conditions: time 21.0 day
MDA-MB-231 [20] = experiment: Induction of ferroptosis-mediated morphological changes in human MDA-MB-231 cells assessed as change in nuclear morphology at 20 nM incubated for 6 hrs by TEM analysis; assay type: functional, cell-based
MDA-MB-231 [21] = experiment: Induction of ferroptosis in human MDA-MB-231 cells assessed as cell viability at 1 uM incubated for 72 hrs in presence of deferoxamine by MTT assay; assay type: functional, cell-based
[22] = Toxicity in immunodeficient BALB/c mouse xenografted with human MDA-MB-231 cells assessed as morphological changes in lung at 20 mg/kg, ip for 21 days by H and E staining based microscopy; assay type: organism-based; conditions: in vivo, 504 h, time 21 day
MDA-MB-231 [23] = experiment: Induction of ferroptosis-mediated antitumor activity against human MDA-MB-231 cells xenografted in immunodeficient BALB/C mouse assessed as reduction in GPX4 level in tumor tissue at 5 to 20 mg/kg,ip for 21 days by Western blot analysis; assay type: functional, organism-based; conditions: dose 5-20 mg/kg, time 21.0 day
MDA-MB-231 [24] = experiment: Induction of ferroptosis in human MDA-MB-231 cells assessed as cell viability incubated for 72 hrs in presence of deferoxamine by MTT assay; assay type: functional, cell-based; conditions: MDA-MB-231, 72 h
[25] = Toxicity in immunodeficient BALB/c mouse xenografted with human MDA-MB-231 cells assessed as morphological changes in spleen at 20 mg/kg, ip for 21 days by H and E staining based microscopy; assay type: organism-based; conditions: in vivo, 504 h, time 21 day
MDA-MB-231 [26] = experiment: Induction of ferroptosis-mediated morphological changes in human MDA-MB-231 cells assessed as decreased or absence of mitochondrial crests at 20 nM incubated for 6 hrs by TEM analysis; assay type: functional, cell-based
MDA-MB-468 = experiment: Antiproliferative activity against human MDA-MB-468 cells assessed as inhibition of cell viability incubated for 72 hrs by CCK-8 assay; assay type: functional, cell-based; conditions: MDA-MB-468, 72 h
[27] = Toxicity in immunodeficient BALB/c mouse xenografted with human MDA-MB-231 cells assessed as morphological changes in kidney at 20 mg/kg, ip for 21 days by H and E staining based microscopy; assay type: organism-based; conditions: in vivo, 504 h, time 21 day
MDA-MB-231 [28] = experiment: Induction of ferroptosis in human MDA-MB-231 cells assessed as cell viability incubated for 72 hrs in presence of glutathione by MTT assay; assay type: functional, cell-based; conditions: MDA-MB-231, 72 h

Row | Compound | microsomal CLint at 1 µM [1] [µL/min/mg] | inhibition in vivo at 10 mg/kg (MDA-MB-231 [2]) [%] | Activity (MDA-MB-231 [3]) | Activity [4] | IC50 (MDA-MB-231 [5]) [nM] | Activity (BT-549) | Activity [6] | Activity [7] | Activity (MDA-MB-231 [8]) | inhibition in vivo at 5 mg/kg (MDA-MB-231 [9]) [%] | inhibition in vivo at 20 mg/kg (MDA-MB-231 [10]) [%] | Activity (MDA-MB-231 [11]) | inhibition (MDA-MB-231 [12]) | Activity (L02) | Activity [13] | Activity (MDA-MB-231 [14]) | Activity (HT-29) | Activity (MDA-MB-231 [15]) | Activity (4T1) | Activity [16] | further results
1 | COc1cc(N(C(=O)CCl)c2ccc3c(c2)OCCO3)cc(OC)c1F | 416 | 73.1 | Active | Toxic | 12 | Active | Non-Toxic | Toxic | Active | 50.4 | 81 | inactive | Dose-Dependent Effect | Non-Toxic | Toxic | inactive | inactive | Dose-Dependent Effect | Active | Toxic | Activity (HeLa): inactive; Activity (MDA-MB-231 [17]): Active; Activity (MDA-MB-231 [18]): Active; Activity (MDA-MB-231 [19]): Active; Activity (MDA-MB-231 [20]): inactive; Activity (MDA-MB-231 [21]): Active; Activity [22]: Non-Toxic; Activity (MDA-MB-231 [23]): Active; IC50 (MDA-MB-231 [24]): 2570 nM; Activity [25]: Non-Toxic; Activity (MDA-MB-231 [26]): Active; IC50 (MDA-MB-468): 10 nM; Activity [27]: Non-Toxic; IC50 (MDA-MB-231 [28]): > 20000 nM
2 | COc1cc(N(C(=O)CBr)c2ccc3c(c2)OCCO3)cc(OC)c1F | 1740 | 47.9 | Active | Toxic | 8 | Active | Non-Toxic | Toxic | Active | 18.9 | 71.7 | inactive | Dose-Dependent Effect | Non-Toxic | Toxic | inactive | inactive | Dose-Dependent Effect | Active | Toxic | Activity (HeLa): inactive; Activity (MDA-MB-231 [17]): Active; Activity (MDA-MB-231 [18]): Active; Activity (MDA-MB-231 [19]): Active; Activity (MDA-MB-231 [20]): inactive; Activity (MDA-MB-231 [21]): Active; Activity [22]: Non-Toxic; Activity (MDA-MB-231 [23]): Active; IC50 (MDA-MB-231 [24]): 1850 nM; Activity [25]: Non-Toxic; Activity (MDA-MB-231 [26]): Active; IC50 (MDA-MB-468): 12 nM; Activity [27]: Non-Toxic; IC50 (MDA-MB-231 [28]): > 20000 nM
